These results are taken from US11214803B2, “Modulators of YAP1 expression” (Ionis Pharmaceuticals, Inc., priority 2019, dated 2022).

Strand notation (5' to 3'): a small letter for the sugar, then the base; units joined by * are phosphorothioate-linked, units joined directly phosphodiester-linked; [ ] holds rarer units or linkages, { } end groups; capitals alone tell only the bases. k = constrained ethyl (cEt); [5mC] = 5-methylcytosine; d = 2'-deoxy (DNA)

The first data set has as its system Yap1 mRNA. Kind of data set: Antisense inhibition of human Yap1 in A-431 cells by cEt gapmers, single dose (Example 3, RTS36584). It counts as cell-based. To be noted: Table 26; Yap1 mRNA by 3-10-3 cEt gapmers targeting SEQ ID NO.: 1, and 2; percent of untreated control. An outline of the steps:
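A-431 cells were treated by free uptake with 2,000 nM modified oligonucleotide (3-10-3 cEt gapmers, full phosphorothioate, 5-methylcytosines) for about 48 hours. Yap1 mRNA was quantified by real-time RT-PCR, normalized to RiboGreen total RNA, and expressed as % of untreated control; asterisked values mark oligonucleotides targeting the amplicon region.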
In the case of “1075404 (antisense kA*kT*kA*dT*dA*dA*d[5mC]*d[5mC]*dT*dG*dA*dA*d[5mC]*kT*kA*kA) [compound 1075404]”, the “YAP1 (% UTC)” value amounted to 102 % UTC.
Still for that read-out and setting: then “1075436 (antisense k[5mC]*k[5mC]*kT*dT*dA*dA*dA*d[5mC]*dG*dA*dT*dA*dA*kA*kG*kT) [compound 1075436]”, with 89 % UTC; and “1075468 (antisense k[5mC]*kA*k[5mC]*d[5mC]*dA*dA*dT*dA*d[5mC]*dT*dG*dA*dG*kT*kA*kT) [compound 1075468]”, with 91 % UTC; and “1075500 (kT*kA*kA*dA*dT*dT*dA*dA*dG*d[5mC]*d[5mC]*dA*dA*k[5mC]*kA*k[5mC]; antisense) [compound 1075500]”, with 26 % UTC.
Still for that read-out and setting: the figure for “1075532 (kA*k[5mC]*kT*dT*dA*dA*dT*dA*dG*dT*dT*dT*dA*kA*k[5mC]*k[5mC]; antisense) [compound 1075532]” is 121 % UTC; for “1075564 (kA*kT*kA*dT*dA*dA*d[5mC]*dA*dG*dG*d[5mC]*d[5mC]*dA*k[5mC]*k[5mC]*kA; antisense) [compound 1075564]” it is 81 % UTC; for “1075596 (antisense kA*kT*kA*dT*dA*dA*dT*dA*d[5mC]*dA*dT*d[5mC]*dT*k[5mC]*k[5mC]*k[5mC]) [compound 1075596]” it is 91 % UTC.
Same read-out and setting: the figure for “1075628 (antisense k[5mC]*k[5mC]*kG*d[5mC]*dA*dA*dA*dA*dT*dA*dT*dT*dA*kA*kT*kT) [compound 1075628]” is 118 % UTC.

Still in this data set, the particulars now being: Table 27; Yap1 mRNA by 3-10-3 cEt gapmers targeting SEQ ID NO.: 1, and 2; percent of untreated control.
For “1075405 (antisense k[5mC]*kT*kA*dT*dA*dT*dA*dA*d[5mC]*d[5mC]*dT*dG*dA*kA*k[5mC]*kT) [compound 1075405]”, the “YAP1 (% UTC)” value is listed as 84 % UTC.
On the same count and under the same terms, then “1075437 (antisense kT*kA*kT*dT*dA*dG*dT*dA*d[5mC]*dG*dA*dG*d[5mC]*kT*kA*k[5mC]) [compound 1075437]”, with 85 % UTC.
As to “1075469 (antisense kT*kG*kA*dT*dA*dT*dA*dA*dT*dG*dA*d[5mC]*d[5mC]*kA*kA*kG) [compound 1075469]”, the “YAP1 (% UTC)” value is 25 % UTC.
The same measure, in the same setting: the figure for “1075501 (k[5mC]*kA*kT*dA*dA*dA*dT*dT*dA*dA*dG*d[5mC]*d[5mC]*kA*kA*k[5mC]; antisense) [compound 1075501]” is 67 % UTC.
In the case of “1075533 (kG*kA*kT*dT*dA*d[5mC]*dT*d[5mC]*dA*dG*d[5mC]*dT*dA*kT*kG*kT; antisense) [compound 1075533]”, the “YAP1 (% UTC)” value stood at 65 % UTC.
On to “1075565 (kT*kA*kT*dA*dT*dA*dA*d[5mC]*dA*dG*dG*d[5mC]*d[5mC]*kA*k[5mC]*k[5mC]; antisense) [compound 1075565]”, for which the “YAP1 (% UTC)” value turned out to be 52 % UTC.
The same measure, in the same setting: then “1075597 (antisense kA*kT*kT*dA*dA*d[5mC]*dA*dT*dT*dT*dG*d[5mC]*d[5mC]*k[5mC]*kG*k[5mC]) [compound 1075597]”, with 47 % UTC.
Regarding “1075629 (antisense kG*k[5mC]*k[5mC]*dG*d[5mC]*dA*dA*dA*dA*dT*dA*dT*dT*kA*kA*kT) [compound 1075629]”, the “YAP1 (% UTC)” value was 100 % UTC.

Staying with this data set, now noted: Table 28; Yap1 mRNA as percent of untreated control; 3-10-3 cEt gapmers targeting SEQ ID NO.: 1, and 2.
In the case of “1075406 (antisense kA*k[5mC]*kT*dA*dT*dA*dT*dA*dA*d[5mC]*d[5mC]*dT*dG*kA*kA*k[5mC]) [compound 1075406]”, the “YAP1 (% UTC)” value turned out to be 99 % UTC.
On the same count and under the same terms, then “1075438 (antisense k[5mC]*kA*kT*dA*dT*dT*dA*dG*dA*dG*dT*dT*dG*kA*kG*kG) [compound 1075438]”, with 22 % UTC; and “1075470 (antisense kG*k[5mC]*k[5mC]*dA*dA*dT*dA*dA*dG*dT*dT*dA*dT*k[5mC]*kA*kA) [compound 1075470]”, with 50 % UTC; and “1075502 (k[5mC]*kT*kT*dA*dA*d[5mC]*dA*dT*dG*dA*dT*dT*d[5mC]*kT*kA*kG; antisense) [compound 1075502]”, with 61 % UTC.
On the same count and under the same terms, the figure for “1075534 (kA*k[5mC]*k[5mC]*d[5mC]*dA*dA*dG*dG*dA*d[5mC]*dA*dG*d[5mC]*kA*k[5mC]*kA; antisense) [compound 1075534]” is 53 % UTC; for “1075566 (kA*kT*kA*dT*dA*dT*dA*dA*d[5mC]*dA*dG*dG*d[5mC]*k[5mC]*kA*k[5mC]; antisense) [compound 1075566]” it is 50 % UTC.
Same read-out and setting: the figure for “1075598 (antisense kA*kA*kT*dT*dA*dA*d[5mC]*dA*dT*dT*dT*dG*d[5mC]*k[5mC]*k[5mC]*kG) [compound 1075598]” is 62 % UTC; for “1075630 (antisense kT*kA*kT*dA*dA*d[5mC]*d[5mC]*dA*dA*dA*dT*dG*d[5mC]*k[5mC]*kG*k[5mC]) [compound 1075630]” it is 60 % UTC.

The same data set, now with this note: Table 29; Yap1 mRNA as percent of untreated control; 3-10-3 cEt gapmers targeting SEQ ID NO.: 1, and 2.
In the case of “1075407 (antisense kG*kA*kA*d[5mC]*dT*dA*dT*dA*dT*dA*dA*d[5mC]*d[5mC]*kT*kG*kA) [compound 1075407]”, the “YAP1 (% UTC)” value is 32 % UTC.
Same read-out and setting: then “1075439 (antisense kA*kA*kT*dT*dA*dG*dA*dG*dA*dT*dA*dT*dG*kG*kA*k[5mC]) [compound 1075439]”, with 77 % UTC; and “1075471 (antisense kA*kG*k[5mC]*d[5mC]*dA*dA*dT*dA*dA*dG*dT*dT*dA*kT*k[5mC]*kA) [compound 1075471]”, with 55 % UTC.
Same read-out and setting: then “1075503 (kG*k[5mC]*kT*dG*dA*dA*dA*dA*dA*dG*dG*dG*d[5mC]*kT*kT*kA; antisense) [compound 1075503]”, with 66 % UTC.
Same read-out and setting: the figure for “1075535 (kA*kA*kT*dT*dA*d[5mC]*d[5mC]*d[5mC]*dA*dA*dG*dG*dA*k[5mC]*kA*kG; antisense) [compound 1075535]” is 53 % UTC; for “1075567 (kG*kA*kT*dA*dT*dA*dT*dA*dA*d[5mC]*dA*dG*dG*k[5mC]*k[5mC]*kA; antisense) [compound 1075567]” it is 65 % UTC.
On to “1075599 (antisense kA*k[5mC]*k[5mC]*d[5mC]*dT*dA*dT*dA*dG*d[5mC]*dT*dT*dT*kA*kG*kG) [compound 1075599]”, for which the “YAP1 (% UTC)” value amounted to 90 % UTC.
As for “1075631 (antisense k[5mC]*k[5mC]*k[5mC]*dT*dA*dT*dA*dA*d[5mC]*d[5mC]*dA*dA*dA*kT*kG*k[5mC]) [compound 1075631]”, the “YAP1 (% UTC)” value came out at 104 % UTC.

The data set is the same for the next values; noted with them: Table 34; Yap1 mRNA as percent of untreated control; 3-10-3 cEt gapmers targeting SEQ ID NO: 1 and 2; single dose.
For the substance “1075412 (antisense kT*k[5mC]*k[5mC]*dA*dA*dA*dA*dA*dG*dG*dG*dT*dA*kA*kG*kG) [compound 1075412]”, the “YAP1 (% UTC)” value is reported as 48 % UTC.
The same measure, in the same setting: the figure for “1075444 (antisense kA*kT*kA*dA*dA*dT*d[5mC]*d[5mC]*dT*d[5mC]*dA*dT*dG*kT*kG*kG) [compound 1075444]” is 112 % UTC.
Still for that read-out and setting: then “1075476 (kT*k[5mC]*kT*dT*dA*dT*d[5mC]*d[5mC]*dT*dA*d[5mC]*dA*dG*k[5mC]*kT*kT; antisense) [compound 1075476]”, with 75 % UTC; and “1075508 (kG*kA*kA*dA*dA*dA*dG*dG*dT*dT*dT*dA*dG*kG*kG*kT; antisense) [compound 1075508]”, with 84 % UTC; and “1075540 (kG*k[5mC]*kT*dT*dA*dA*dG*dG*dG*dA*dT*dG*dG*kA*kA*k[5mC]; antisense) [compound 1075540]”, with 78 % UTC.
On the same count and under the same terms, then “1075572 (antisense k[5mC]*kA*kA*dT*dT*dT*dA*dA*d[5mC]*dT*dG*dT*dT*kA*k[5mC]*kA) [compound 1075572]”, with 84 % UTC; and “1075604 (antisense kA*kT*kA*dA*dT*dT*dA*dA*dG*d[5mC]*dT*dA*dT*k[5mC]*kA*k[5mC]) [compound 1075604]”, with 81 % UTC.
As for “1075636 (antisense k[5mC]*kA*kA*dT*dA*dA*dA*d[5mC]*dA*d[5mC]*d[5mC]*dT*d[5mC]*kG*k[5mC]*k[5mC]) [compound 1075636]”, the “YAP1 (% UTC)” value is listed as 91 % UTC.

The same data set, now with this note: Table 35; Yap1 mRNA as percent of untreated control; 3-10-3 cEt gapmers targeting SEQ ID NO: 1 and 2; single dose.
On to “1075413 (antisense k[5mC]*kA*kT*dA*dA*d[5mC]*dT*dA*d[5mC]*dA*dT*d[5mC]*dG*kA*k[5mC]*kA) [compound 1075413]”, for which the “YAP1 (% UTC)” value is 34 % UTC.
On the same count and under the same terms, then “1075445 (antisense kT*kA*kT*dA*dA*dA*dT*d[5mC]*d[5mC]*dT*d[5mC]*dA*dT*kG*kT*kG) [compound 1075445]”, with 84 % UTC; and “1075477 (k[5mC]*kT*kT*dT*dA*dT*d[5mC]*dT*d[5mC]*dA*d[5mC]*dT*dA*kG*k[5mC]*kT; antisense) [compound 1075477]”, with 86 % UTC; and “1075509 (k[5mC]*kA*kT*dA*dA*dT*d[5mC]*d[5mC]*d[5mC]*dT*dG*dA*d[5mC]*kT*kT*kG; antisense) [compound 1075509]”, with 81 % UTC.
The same measure, in the same setting: the figure for “1075541 (kG*k[5mC]*kT*d[5mC]*dA*dA*dA*dA*d[5mC]*dT*dG*dA*d[5mC]*kA*kT*kA; antisense) [compound 1075541]” is 47 % UTC.
On the same count and under the same terms, the figure for “1075573 (antisense kA*kA*kG*dG*dA*dA*d[5mC]*d[5mC]*dT*dT*d[5mC]*dT*dG*kT*kG*kT) [compound 1075573]” is 72 % UTC; for “1075605 (antisense k[5mC]*kG*kT*dA*dA*dA*d[5mC]*dA*dT*dT*dT*dT*dG*k[5mC]*k[5mC]*kT) [compound 1075605]” it is 38 % UTC.
